# Source: article PMC3265452 (PLoS Neglected Tropical Diseases, 2012)
# Structures can show the parent of a compound that is named as a salt.
# Biological target: AaDOP2 (Aedes aegypti, UniProt H6D5H2)
# Assay: AaDOP2 antagonist screen of the LOPAC1280 library (HEK-CRELuc-Aadop2 cells, luminescence)
# Format: cell-based
# Details: not given
# Sequence of AaDOP2 (H6D5H2 1-476): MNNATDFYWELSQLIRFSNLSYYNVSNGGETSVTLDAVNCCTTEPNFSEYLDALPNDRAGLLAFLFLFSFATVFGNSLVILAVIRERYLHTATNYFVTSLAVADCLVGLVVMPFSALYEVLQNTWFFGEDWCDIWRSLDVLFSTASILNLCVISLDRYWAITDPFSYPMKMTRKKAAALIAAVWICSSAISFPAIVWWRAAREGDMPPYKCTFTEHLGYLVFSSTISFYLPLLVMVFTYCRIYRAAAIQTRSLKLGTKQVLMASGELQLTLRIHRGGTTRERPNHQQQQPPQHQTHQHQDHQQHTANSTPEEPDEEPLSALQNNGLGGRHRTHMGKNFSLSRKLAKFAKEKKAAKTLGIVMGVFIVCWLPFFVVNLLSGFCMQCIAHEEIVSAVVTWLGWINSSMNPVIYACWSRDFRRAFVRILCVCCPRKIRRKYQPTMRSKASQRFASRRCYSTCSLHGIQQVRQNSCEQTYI
row,SMILES,"Compound effect (percent receptor signaling in presence of test compound, relative lux units relative to the SCH23390 control)"
1,"CC(C)(Sc1ccc(CCN(CCCCC2CCCCC2)C(=O)NC2CCCCC2)cc1)C(=O)O [Compound 557, GW7647]",50
2,"CC[N+](CC)(CC)CCOc1cccc(OCC[N+](CC)(CC)CC)c1OCC[N+](CC)(CC)CC [Compound 559, Gallamine triethiodide]",120
3,"Cl.Cl.c1ccc(CCCN2CCN(CCOC(c3ccccc3)c3ccccc3)CC2)cc1 [Compound 560, GBR-12935 dihydrochloride]",61
4,"O=C(O)C1=CCNCC1 [Compound 561, Isoguvacine hydrochloride]",71
5,"O=C(O)C1=CCCNC1 [Compound 562, Guvacine hydrochloride]",94
6,"Br.NCc1cc(O)no1 [Compound 564, Muscimol hydrobromide]",130
7,"N=C(N)N/N=C/c1c(Cl)cccc1Cl [Compound 565, Guanabenz acetate]",156
8,"Cc1cnc(C(=O)NCCc2ccc(S(=O)(=O)NC(=O)NC3CCCCC3)cc2)cn1 [Compound 567, Glipizide]",103
9,"CC1=NN=C(c2ccc(N)cc2)c2cc3c(cc2C1)OCO3.Cl [Compound 568, GYKI 52466 hydrochloride]",90
10,"CC1Cc2cc3c(cc2C(c2ccc(N)cc2)=NN1)OCO3 (stereo not drawn) [Compound 569, GYKI 52895]",71
11,"COC(=O)N1CCN(C(=O)Cc2ccc(Cl)c(Cl)c2)C(CN2CCCC2)C1.O=C(O)/C=C/C(=O)O (stereo not drawn) [Compound 570, GR-89696 fumarate]",79
12,"NCC1(CC(=O)O)CCCCC1 [Compound 571, Gabapentin]",112
13,"C[N+](C)(C)CCCCCC[N+](C)(C)C [Compound 575, Hexamethonium bromide]",91
14,"COc1cc(CC(=O)O)ccc1O [Compound 576, 4-Hydroxy-3-methoxyphenylacetic acid]",82
15,"NCCS(=O)O [Compound 578, Hypotaurine]",89
16,"NNc1nncc2ccccc12 [Compound 580, Hydralazine hydrochloride]",100
17,"Cl.OCc1c[nH]cn1 [Compound 581, 4-Imidazolemethanol hydrochloride]",114
18,"C[N+](C)(C)CCCCCC[N+](C)(C)C.[Cl-].[Cl-] [Compound 582, Hexamethonium dichloride]",94
19,"COc1ccc(CCN)cc1O.Cl [Compound 586, 4-Methoxy-3-hydroxyphenethylamine hydrochloride]",130

row,SMILES,"Compound effect (percent receptor signaling in presence of test compound, relative lux units relative to the SCH23390 control)"
1,"Nc1c2c(nc3ccccc13)CCCC2O.O=C(O)/C=C\C(=O)O (stereo not drawn) [Compound 587, Hydroxytacrine maleate]",86
2,"C[C@]12CCC(=O)C=C1CC[C@@H]1[C@@H]2[C@@H](O)C[C@@]2(C)[C@H]1CC[C@]2(O)C(=O)CO [Compound 588, Hydrocortisone]",78
3,"[Cl-].[Li+] [Compound 589, Lithium Chloride]",86
4,"COC(=O)[C@H](NC(=O)c1cc(-c2ccccc2)nc2ccccc12)c1ccccc1 [Compound 591, SB 218795]",98
5,"O=c1cc(O)cc(/C=C/c2ccc(O)c(O)c2)o1 [Compound 592, Hispidin]",81
6,"CCCc1c(-c2ccc(O)cc2)nn(-c2ccc(O)cc2)c1-c1ccc(O)cc1 [Compound 594, 1,3,5-tris(4-hydroxyphenyl)-4-propyl-1H-pyrazole]",73
7,"Oc1ccc(Cn2ccnc2S)cc1 [Compound 595, 1-(4-Hydroxybenzyl)imidazole-2-thiol]",63
8,"Cc1nccc2c1[nH]c1ccccc12 [Compound 597, Harmane]",60
9,"Cl.N[C@@H](Cc1cnc[nH]1)C(=O)O [Compound 601, L-Histidine hydrochloride]",91
10,"CN1[C@@H]2CC[C@H]1C[C@@H](OC(=O)[C@H](CO)c1ccccc1)C2 [Compound 609, L-Hyoscyamine]",75
11,"Oc1ccc(O)cc1 [Compound 610, Hydroquinone]",89
12,"S=C=Nc1ccc2oc(C3=NCCN3)cc2c1 [Compound 611, BU99006]",104
13,"Cl.Cl.NNCc1cccc(O)c1 [Compound 612, 3-Hydroxybenzylhydrazine dihydrochloride]",104
14,"CCCc1c(OCCCOc2ccc(OCC(=O)O)cc2)ccc(C(C)=O)c1O [Compound 614, L-165,041]",116
15,"N[C@@H](Cc1c[nH]c2ccc(O)cc12)C(=O)O [Compound 615, 5-Hydroxy-L-tryptophan]",126
16,"NNC(=O)c1ccc(O)cc1 [Compound 617, 4-Hydroxybenzhydrazide]",78
17,"C[N+]1(C)CCOC(O)(c2ccc(-c3ccc(C4(O)C[N+](C)(C)CCO4)cc3)cc2)C1 (stereo not drawn) [Compound 618, Hemicholinium-3]",106
18,"Br.CCCN(CCC)[C@@H]1CCc2cccc(O)c2C1 [Compound 624, R-(+)-8-Hydroxy-DPAT hydrobromide]",89
19,"COc1[nH]c2ccc(F)cc2c1C(=O)OCC1CCN(CCNS(C)(=O)=O)CC1.NS(=O)(=O)O [Compound 626, GR 125487 sulfamate salt]",87

# Same assay, conditions: 10 µM compound, 300 nM dopamine, 2 hr; hit = compound effect <20
row,SMILES,"Compound effect (percent receptor signaling in presence of test compound, relative lux units relative to the SCH23390 control) [%]"
1,"N=C(N)NC(CCC(=O)O)C(=O)O (stereo not drawn) [Compound 558, alpha-Guanidinoglutaric acid]",121
2,"N[C@H](CCC(=O)NCS(=O)(=O)O)C(=O)O [Compound 566, gamma-D-Glutamylaminomethylsulfonic acid]",109
3,"COc1cc2c(CCNC(C)=O)c[nH]c2cc1O [Compound 574, 6-Hydroxymelatonin]",101
4,"C[C@]12CCC(=O)C=C1CC[C@@H]1[C@@H]2[C@@H](O)C[C@@]2(C)[C@H]1CC[C@]2(O)C(=O)COC(=O)CCC(=O)[O-].[Na+] [Compound 583, Hydrocortisone 21-hemisuccinate sodium]",136
5,"CC(=O)O.NC(=NCCC[C@H](N)C(=O)O)NO [Compound 598, NG-Hydroxy-L-arginine acetate]",94
6,"CC1=C(/C=C/C(C)=C/C=C/C(C)=C/C(=O)Nc2ccc(O)cc2)C(C)(C)CCC1 [Compound 599, Retinoic acid p-hydroxyanilide]",88
7,"CCCCC#Cc1nc(N)c2ncn([C@@H]3O[C@H](C(=O)NCC)[C@@H](O)[C@H]3O)c2n1 [Compound 600, HE-NECA]",99
8,"NC(=O)NO [Compound 604, Hydroxyurea]",122
9,"COc1cc(C(O)CO)ccc1OS(=O)(=O)[O-].[K+] (stereo not drawn) [Compound 607, MHPG sulfate potassium]",131
10,"O=C(O)Cc1c[nH]c2ccc(O)cc12 [Compound 608, 5-Hydroxyindolacetic acid]",85
11,"Cl.NO [Compound 616, Hydroxylamine hydrochloride]",118
12,"Cl.NC(N)=NCCNS(=O)(=O)c1cccc2cnccc12 [Compound 619, HA-1004 hydrochloride]",89
13,"CC1CNCCN1S(=O)(=O)c1cccc2cnccc12.Cl.Cl (stereo not drawn) [Compound 620, H-7 dihydrochloride]",38
14,"Cl.O[Si](CCCN1CCCCC1)(c1ccc(F)cc1)C1CCCCC1 (stereo not drawn) [Compound 621, Hexahydro-sila-difenidol hydrochloride, p-fluoro analog]",73
15,"CCCCCC(O)CCCC(=O)O.[Na] (stereo not drawn) [Compound 623, 5-hydroxydecanoic acid sodium]",126
16,"Br.CCCN(CCC)[C@@H]1CCc2ccc(O)cc2C1 [Compound 625, R-(+)-7-Hydroxy-DPAT hydrobromide]",85
